The source made the active and inactive calls. No cut-off for these calls is given here. Where only a bound is given, the exact number is not on record here.

The nature of test [1]: Cytotoxicity against Remb1 cells (unknown origin) assessed as cell killing at 10 uM after 24 hrs by MTT assay. The class given is functional. Background: Tetrazolium dyes change colour on reduction, which living cells bring about.
The subject of another test is BL2. In words: Induction of apoptosis in BL2 cells (unknown origin) assessed as PARP cleavage at 7.5 uM after 24 hrs by Western blot analysis. Type of test: functional, cell-based. A general note: A western blot detects proteins with antibodies after separation by electrophoresis.
The next test has as its target Bcl-xL/BAK (Homo sapiens, UniProt Q07817). In words: Inhibition of Bcl-xL/Bak (unknown origin) interaction. The class given is protein assay.
Test [2] concerns the target Induced myeloid leukemia cell differentiation protein Mcl-1/BH3-interacting domain death agonist (Homo sapiens, UniProt Q07820). In words: Inhibition of Mcl1/Bid (unknown origin) interaction. Type of test: protein assay.
For the next test, the system named is BL2/B95. In words: Induction of apoptosis in BL2/B95 cells (unknown origin) assessed as PARP cleavage at 7.5 uM after 24 hrs by Western blot analysis. The class given is functional, cell-based.
Test [3] in a line: Cytotoxicity against BL2 cells (unknown origin) assessed as cell killing after 24 hrs by MTT assay. The class given is functional, cell-based. As to conditions: BL2, 24 h.
The nature of test [4]: Induction of apoptosis in BL2 cells (unknown origin) at 7.5 uM after 24 hrs by Annexin V/propidium iodide staining-based flow cytometric analysis. Type of test: functional. On the technique in general: A flow cytometer gives signals particle by particle.
Test [5] in a line: Induction of apoptosis in Remb1 cells (unknown origin) at 7.5 uM after 24 hrs by Annexin V/propidium iodide staining-based flow cytometric analysis. The class given is functional.
Another test relates to Remb1. The test can be described thus: Induction of apoptosis in Remb1 cells (unknown origin) assessed as PARP cleavage at 7.5 uM after 24 hrs by Western blot analysis. Type of test: functional, cell-based.
Test [6] is described as follows: Cytotoxicity against BL2/B95 cells (unknown origin) assessed as cell killing at 10 uM after 24 hrs by MTT assay. Type of test: functional.
Test [7] is described as follows: Induction of apoptosis in BL2/B95 cells (unknown origin) at 7.5 uM after 24 hrs by Annexin V/propidium iodide staining-based flow cytometric analysis. Type of test: functional.
The nature of test [8]: Cytotoxicity against BL2 cells (unknown origin) assessed as cell killing at 10 uM after 24 hrs by MTT assay. The class given is functional.
A short description of test [9]: Cytotoxicity against BL2/B95 cells (unknown origin) assessed as cell killing after 24 hrs by MTT assay. The class given is functional, cell-based. The conditions noted are these: BL2/B95, 24 h.
Test [10] in a line: Cytotoxicity against Remb1 cells (unknown origin) assessed as cell killing after 24 hrs by MTT assay. Type of test: functional, cell-based. As to conditions: Remb1, 24 h.

Chain of Induced myeloid leukemia cell differentiation protein Mcl-1/BH3-interacting domain death agonist (Q07820 whole entry, the tested form may be a part): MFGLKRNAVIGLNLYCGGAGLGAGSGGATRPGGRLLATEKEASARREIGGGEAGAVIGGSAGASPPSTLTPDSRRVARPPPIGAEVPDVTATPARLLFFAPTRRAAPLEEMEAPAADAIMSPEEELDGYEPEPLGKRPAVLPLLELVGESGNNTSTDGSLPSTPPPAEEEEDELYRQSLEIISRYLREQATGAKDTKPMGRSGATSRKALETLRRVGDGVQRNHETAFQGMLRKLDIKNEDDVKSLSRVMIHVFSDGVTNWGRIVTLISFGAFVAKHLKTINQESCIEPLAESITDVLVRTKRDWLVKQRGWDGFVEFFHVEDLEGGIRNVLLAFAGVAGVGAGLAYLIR
Chain of Induced myeloid leukemia cell differentiation protein Mcl-1/BH3-interacting domain death agonist (P55957 whole entry, further chain, the tested form may be a part): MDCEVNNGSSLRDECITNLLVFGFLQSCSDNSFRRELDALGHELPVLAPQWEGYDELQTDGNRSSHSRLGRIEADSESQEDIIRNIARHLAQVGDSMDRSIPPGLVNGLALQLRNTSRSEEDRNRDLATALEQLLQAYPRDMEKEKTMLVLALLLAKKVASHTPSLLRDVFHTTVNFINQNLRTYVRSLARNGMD
Chain of Bcl-xL/BAK (Q07817 whole entry, the tested form may be a part): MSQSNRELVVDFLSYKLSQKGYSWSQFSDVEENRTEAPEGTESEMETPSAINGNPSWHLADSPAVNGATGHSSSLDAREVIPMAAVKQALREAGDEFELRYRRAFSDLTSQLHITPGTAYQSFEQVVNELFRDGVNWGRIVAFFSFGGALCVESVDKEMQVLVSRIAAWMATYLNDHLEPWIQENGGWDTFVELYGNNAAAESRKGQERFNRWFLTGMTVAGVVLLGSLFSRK
Chain of Bcl-xL/BAK (Q16611 whole entry, further chain, the tested form may be a part): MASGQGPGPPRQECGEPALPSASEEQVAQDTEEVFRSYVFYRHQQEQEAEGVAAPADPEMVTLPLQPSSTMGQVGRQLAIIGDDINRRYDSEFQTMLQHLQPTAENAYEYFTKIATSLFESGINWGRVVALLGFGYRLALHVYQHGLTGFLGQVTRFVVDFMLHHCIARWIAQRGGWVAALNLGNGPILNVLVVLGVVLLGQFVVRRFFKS

Consider `CC(C)=CCC[C@@H](C)[C@@H]1C=C[C@]2(C(=O)O)[C@@H](CC(C)=C[C@H]2/C=C(\C)c2ccc(C(=O)O)cc2)C1`, for which the Activity in [1] is on record as >50%; in test [4], 71%; in test [5] it was 54%; in test [6] it was >50%; in test [7], 52%; in test [8], >50%. For the same compound, the result in the test with BL2, with BL2/B95 and in the test with Remb1 was Active. Besides, the inhibition constant (Ki) on Bcl-xL/BAK is 4.6 µM; in [2], 9.1 µM. Further, the concentration for half-maximal inhibition (IC50) in test [3] is 8.5 µM; in test [9], 8.6 µM; in [10], 8.6 µM.

Consider `CC(C)=CCC[C@@H](C)[C@H]1C=C[C@@]2(C(=O)O)[C@H](CC(C)=C[C@@H]2/C=C(\C)[C@H]2CC[C@H](C(=O)O)CC2)C1`, for which the concentration for half-maximal inhibition (IC50) in test [3], in test [9] and in test [10] was > 20 µM throughout.

Regarding `CC(C)=CCC[C@H](C)[C@H]1C=C[C@@]2(C(=O)O)[C@H](CC(C)=C[C@@H]2/C=C(\C)[C@H]2CC[C@H](C(=O)O)CC2)C1`, the 50% inhibitory concentration (IC50) in test [3], in test [9] and in test [10] was > 20 µM throughout.

Take `CC(C)=CCC[C@@H](C)[C@@H]1C=C[C@]2(C(=O)O)[C@@H](CC(C)=C[C@H]2/C=C(\C)[C@H]2CC[C@H](C(=O)O)CC2)C1`: the IC50 in [3], in test [9] and in test [10] was > 20 µM each time.

In the case of `CC(C)=CCC[C@H](C)[C@@H]1C=C[C@]2(C(=O)O)[C@@H](CC(C)=C[C@H]2/C=C(\C)c2ccc(C(=O)O)cc2)C1`, the inhibition constant (Ki) on Bcl-xL/BAK came out at 7.5 µM; in test [2] it was 15.9 µM. The concentration for half-maximal inhibition (IC50) in test [3], in [9] and in [10] was > 20 µM each time.

As a reminder, the Ki is a dissociation constant, usually derived from enzyme kinetics or from competition with a known ligand. Read a high Ki as weaker binding. In general, IC50 refers to the concentration at which inhibition is half-maximal.
